Results published in US20210078917A1, “FUNGICIDAL FERTILIZER COMPOSITION COMPRISING POTASSIUM PHOSPHITE AND GAMMA-POLY-GLUTAMIC ACID” (JIANGSU HUIFENG BIO AGRICULTURE CO., LTD., priority 2018, published 2021).

What was measured:
Assay type in all cases: in vivo
tomato = experiment: Yield increase and quality test of tomato; details: 60 g active ingredient per mu
Description: […]. This fertilizer was applied on the basis of conventional fertilization in each treatment area. Fertilization method: The fertilizer was applied by spraying during the seedling stage of tomato. The yield, quality and control effect on disease on tomato were determined.

pepper = experiment: Yield increase and quality test of pepper; details: 40 g active ingredient per mu
Description: This fertilizer was applied on the basis of conventional fertilization in each treatment area. Fertilization method: The fertilizer was applied by spraying during the seedling stage of pepper. The yield, quality and control effect on disease on pepper were determined.

peanut = experiment: Yield increase and quality test of peanut
Description: […]. Fertilization method: The fertilizer was applied three times by spraying during the flowering and fruiting period. The yield, quality and control effect on disease on peanut were determined.

γ-poly-glutamic acid was tested, and the “Quality: Amino acid” value (tomato) was 610.17 mg/100 kg, the “Quality: Vitamin C” value (tomato) was 17.32 mg/100 g and the “Yield: Total yield” value (tomato) was 3519 kg/mu. The “Yield: Weight of single fruit” value (tomato) was 21.7 g, the “Quality: Vitamin C” value (pepper) was 26.8 mg/100 g and the “Yield: Total yield” value (pepper) was 3382 kg/mu. For the same substance, the “Yield: Weight of single fruit” value (pepper) was 49.2 g, the “Quality: Linoleic acid” value (peanut; 30 g/mu) was 44.52% and the “Quality: Protein” value (peanut; 30 g/mu) was 22.91%. The Yield (peanut; 30 g/mu) was 285.3 kg/mu, the “Yield: Seed yield” value (peanut; 30 g/mu) was 66.7% and the “Yield: Weight per 100 fruits” value (peanut; 30 g/mu) was 113.4 g. The “Quality: Linoleic acid” value (peanut; 60 g/mu) was 45.36%, the “Quality: Protein” value (peanut; 60 g/mu) was 24.31% and the Yield (peanut; 60 g/mu) was 310.8 kg/mu. For the same substance, the “Yield: Seed yield” value (peanut; 60 g/mu) was 69.1% and the “Yield: Weight per 100 fruits” value (peanut; 60 g/mu) was 126.7 g.
